In patent publication US20240051936A1, “ISOINDOLINONE COMPOUNDS” (Monte Rosa Therapeutics, Inc., priority 2021, published 2024) one finds IC50 and DC50 data, which are given here for 19 compounds.

Test [1] deals with Full length wild-type cereblon CRBN (Homo sapiens (Human), UniProt Q96SW2). As to the kind of experiment: Fluorescence polarization (FP) assay, cereblon binding. The procedure:
Compound activity was monitored in a fluorescence polarization (FP) homogeneous assay using 1-[5-({2-[2-(2-{[2-(2,6-dioxopiperidin-3-yl)-1,3-dioxo-2,3-dihydro-1H-isoindol-4-yl]oxy}acetamido)ethoxy]ethyl}carbamoyl)pentyl]-3,3-dimethyl-2-[(1E,3E)-5-[(2E)-1,3,3-trimethyl-5-sulfo-2,3-dihydro-1H-indol-2-ylidene]penta-1,3-dien-1-yl]-3H-indol-1-ium-5-sulfonate as a fluorescent probe. Unless otherwise stated, all reagents were purchased from Sigma Aldrich. Enzymatic reactions were conducted in Perkin-Elmer Black 384 well ProxiPlate Plus (catalogue no. 6008269) in 10 sL total volume. Full length wild-type cereblon CRBN (80.0 nM, 10 sL) was incubated in assay buffer containing 20 mM HEPES (pH 8.0), […], 0.5 mM TCEP and 0.05% Tween 20 in the presence or absence of compound (300 nL). Inhibitors were stored as 10 mM DMSO stocks in an inert environment (low humidity, dark, low oxygen, room temperature) using the Storage Pod System.
Compounds and DMSO were dispensed using the Echo E5XX (Labcyte Inc. USA) to give concentrations from 300 to 0.937 or 3000 to 9.3 nM in a 12 data point curve. […] Following incubation at room temperature for 30 min, the assay was initiated by dispensing the probe to a final concentration of 5 nM (2.5 nL of a 20 μM stock) using the Echo E5XX. FP was measured after a period of 12 hours using a Pherastar plate reader (BMG Labtech, Germany) exciting at 590 nm and measuring the amount of parallel and perpendicular light at 675 nm. The FP signal was subsequently normalized to the no-compound control (i.e., DMSO). Analysis and IC50 values were derived using Dotmatics (Dotmatics UK) software.
(Fluorescence polarisation rises when a labelled molecule tumbles more slowly, as on binding a larger partner.)

For a further test, the target named is GSPT1 (Homo sapiens (Human), UniProt P15170+Q96SW2). The test is described as follows: Immunofluorescence assay for GSPT1 degradation in CAL-Si cells. The format is cell-based. The following applies: CAL-Si cells. The procedure: The compounds were tested in an immunofluorescence assay for their activity to bind to degrade GSPT1. CAL-Si cells were purchased from DSMZ (cat. Number ACC302), sub-cultured in 90% Dulbecco's MEM (4.5 g/L glucose, Gibco 11965)+10% heat inactivated FBS (BioConcept, 2-01F136I) and incubated at 37° C., 5% CO2. For the assay, imaging microtiterplate Cell Carrier 96 Ultra (Perkin Elmer 6055302) were pre-coated with Fibronectin (Sigma F085, 30 μl at 0.2 μg/ml) in PBS (100 μl, Gibco 14190) for 45 min at room temperature, rinsed with PBS and CAL-Si cells (30K cells/well) were plated and let to adhere overnight. Cells were treated with compounds typically using a serial dilution ranging from 30 μM to 0.1 nM for 6 hours. Compounds were stored at 10 mM DMSO stocks. Vehicle (DMSO), positive (CC-885, 10 μM) and rescue controls (positive control plus 0.2 μM bortezomib) were also included at this stage. Cells were subsequently rinsed with PBS and fixed in 10% Formalin solution (50 μl, Sigma HT5011)) for 20 mins at room temperature. Following three consecutive PBS washes (100 μl), cells were permeabilized in 0.1% Triton X-100 in PBS (Sigma 93443, 50 μl) for 15 mins at room temperature. Following three further PBS washes, 50 μl blocking buffer (1% BSA, Sigma A4503, in PBS) was added for 45 min for signal-to-noise reduction.
Chain of GSPT1 (P15170 whole entry): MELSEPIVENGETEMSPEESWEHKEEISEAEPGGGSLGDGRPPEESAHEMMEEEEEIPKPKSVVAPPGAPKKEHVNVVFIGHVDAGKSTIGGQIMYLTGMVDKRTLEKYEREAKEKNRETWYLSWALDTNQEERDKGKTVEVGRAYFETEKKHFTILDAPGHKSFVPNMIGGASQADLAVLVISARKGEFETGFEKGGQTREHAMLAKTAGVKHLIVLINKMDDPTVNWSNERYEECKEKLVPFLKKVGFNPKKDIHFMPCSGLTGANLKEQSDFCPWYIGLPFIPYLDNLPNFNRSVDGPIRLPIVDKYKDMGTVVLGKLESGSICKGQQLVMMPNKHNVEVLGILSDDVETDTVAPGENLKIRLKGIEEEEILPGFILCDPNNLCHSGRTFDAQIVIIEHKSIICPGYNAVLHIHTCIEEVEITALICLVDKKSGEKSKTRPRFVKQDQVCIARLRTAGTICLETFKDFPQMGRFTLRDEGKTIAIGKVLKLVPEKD
Chain of GSPT1 (Q96SW2 whole entry): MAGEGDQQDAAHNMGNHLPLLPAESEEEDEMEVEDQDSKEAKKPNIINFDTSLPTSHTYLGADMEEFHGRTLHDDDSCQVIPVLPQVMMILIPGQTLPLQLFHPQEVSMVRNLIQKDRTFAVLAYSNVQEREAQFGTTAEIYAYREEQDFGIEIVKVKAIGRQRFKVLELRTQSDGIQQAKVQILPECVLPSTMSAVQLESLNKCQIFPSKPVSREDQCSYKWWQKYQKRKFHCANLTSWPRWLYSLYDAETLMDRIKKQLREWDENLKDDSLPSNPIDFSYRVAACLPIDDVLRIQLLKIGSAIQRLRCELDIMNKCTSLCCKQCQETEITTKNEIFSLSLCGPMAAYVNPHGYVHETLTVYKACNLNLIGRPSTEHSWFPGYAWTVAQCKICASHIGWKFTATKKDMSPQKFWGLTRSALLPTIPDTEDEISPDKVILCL
Chain of GSPT1 (Q16531 whole entry partner): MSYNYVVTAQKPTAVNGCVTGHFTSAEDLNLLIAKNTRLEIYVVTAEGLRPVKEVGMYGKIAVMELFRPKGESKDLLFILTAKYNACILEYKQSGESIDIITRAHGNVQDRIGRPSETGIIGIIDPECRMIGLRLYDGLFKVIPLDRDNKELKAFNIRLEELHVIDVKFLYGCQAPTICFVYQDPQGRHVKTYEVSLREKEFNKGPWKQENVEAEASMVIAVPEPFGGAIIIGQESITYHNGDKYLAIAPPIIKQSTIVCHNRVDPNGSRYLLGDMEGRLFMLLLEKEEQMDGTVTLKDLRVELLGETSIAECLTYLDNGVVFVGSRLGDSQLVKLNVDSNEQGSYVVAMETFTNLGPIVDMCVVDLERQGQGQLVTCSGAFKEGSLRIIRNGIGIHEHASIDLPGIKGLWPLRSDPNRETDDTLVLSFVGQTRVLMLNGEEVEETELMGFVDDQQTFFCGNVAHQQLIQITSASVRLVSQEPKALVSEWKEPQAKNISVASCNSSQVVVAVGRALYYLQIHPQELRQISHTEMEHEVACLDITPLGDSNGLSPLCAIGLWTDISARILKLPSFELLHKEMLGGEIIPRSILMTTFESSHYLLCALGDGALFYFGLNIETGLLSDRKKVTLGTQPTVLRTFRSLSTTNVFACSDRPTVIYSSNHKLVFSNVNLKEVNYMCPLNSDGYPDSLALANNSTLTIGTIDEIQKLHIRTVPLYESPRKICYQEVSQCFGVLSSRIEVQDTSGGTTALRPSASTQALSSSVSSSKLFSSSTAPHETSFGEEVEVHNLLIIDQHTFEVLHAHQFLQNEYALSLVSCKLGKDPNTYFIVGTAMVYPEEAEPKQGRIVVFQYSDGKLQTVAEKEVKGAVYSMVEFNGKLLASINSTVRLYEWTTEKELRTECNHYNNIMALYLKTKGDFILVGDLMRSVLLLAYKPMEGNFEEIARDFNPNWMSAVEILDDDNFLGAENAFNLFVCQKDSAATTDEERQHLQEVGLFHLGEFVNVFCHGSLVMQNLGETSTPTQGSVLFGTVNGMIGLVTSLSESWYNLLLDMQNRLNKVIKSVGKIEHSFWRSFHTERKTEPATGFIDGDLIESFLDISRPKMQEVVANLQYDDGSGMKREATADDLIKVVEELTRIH
Primary antibody (human GSPT1, Sigma HPA052488) was diluted in blocking buffer (dil.1/300, 35 μl/well) and incubated with the cells overnight at 4° C. After three PBS washes, Alexa-fluor 488 coupled secondary antibodies (Invitrogen, A32731, dil.1/1000), Alexa-fluor 647-Phalloïdin (Invitrogen, A22287, dil.1/200) and DAPI (Thermo, #62248, dil.1/1000) were diluted in blocking buffer and incubated with the samples for 2 hours at room temperature. After three final PBS washes, samples were conserved in 100 μl PBS in the dark, until measurement. Image acquisition was performed on the Operetta High-Content Imager (Perkin-Elmer). Fluorescence intensity of Alexa-Fluor 488 (GSPT1), Alexa-Fluor 647 (Actin) and DAPI (Nucleus) were measured. For the determination of GSPT1 DC50 values, a custom algorithm implemented in the PerkinElmer image analysis software Harmony-Acapella® was developed. After user-defined setting of adjustment parameters, the analysis was run identically without human intervention for all image fields. DAPI staining of the nuclei was used to determine the location of cells using standard nuclei detection modules. Segmentation artifacts were removed by threshold-based filters for area, roundness and intensity. The outline of the cells was determined analogously from the sum of the normalized, smoothed DAPI and Actin channel, starting from each nucleus. The Alexa-Fluor 488 (GSPT1) signal intensity in each cell was finally measured, in order to obtain a Mean intensity per cell. GSPT1 degradation (DC50) was calculated after normalization to controls and data import in CDD vault Database, using non-linear regression.

Where [2] appears, read: cereblon binding, bound, read-out: IC50 value.
Setting [3] is: treated 6 hours, read-out: Code, activity for GSPT1 degradation (DC50).
[4] abbreviates: wild-type CRBN 80.0 nM, probe 5 nM, FP measured after 12 hours, read-out: rFP IC50.

Where two headings read alike, the source gives them in different places.

Chain of Full length wild-type cereblon CRBN (Q96SW2 whole entry): as the sequence (Q96SW2 whole entry) above

On to `COc1cc(COC(=O)Nc2cc(F)cc(OC(F)F)c2)cc2c1CN(C1CCC(=O)NC1=O)C2=O` (stereo not shown) [Compound 47, (2-(2,6-dioxopiperidin-3-yl)-7-methoxy-3-oxoisoindolin-5-yl)methyl(3-(difluoromethoxy)-5-fluorophenyl) carbamate], for which the IC50 in test [1] (setting [2]) is under 600 nM.

For `COc1cc(COC(=O)Nc2ccc(F)c(OC(F)F)c2)cc2c1CN(C1CCC(=O)NC1=O)C2=O` (stereo not shown) [Compound 46, (2-(2,6-dioxopiperidin-3-yl)-7-methoxy-3-oxoisoindolin-5-yl)methyl(3-(difluoromethoxy)-4-fluorophenyl)carbamate], on GSPT1 (setting [3]), the DC50 is 30 to 300 nM. For the same compound, the IC50 in test [1] (setting [2]) was under 600 nM; in test [1] (setting [4]), 600 to 1200 nM.

For `O=C1CCC(N2Cc3c(F)cc(COC(=O)Nc4cc(F)cc(OC(F)F)c4)cc3C2=O)C(=O)N1` (stereo not shown) [Compound 6, (2-(2,6-dioxopiperidin-3-yl)-7-fluoro-3-oxoisoindolin-5-yl)methyl(3-(difluoromethoxy)-5-fluorophenyl)carbamate], the half-maximal degradation concentration (DC50) on GSPT1 (setting [3]) lay within 30 to 300 nM. Further, the IC50 in test [1] (setting [4]) was over 1900 nM.

With `O=C1CCC(N2Cc3c(F)cc(COC(=O)Nc4cc(F)cc(OC(F)(F)F)c4)cc3C2=O)C(=O)N1` (stereo not shown) [Compound 12, (2-(2,6-dioxopiperidin-3-yl)-7-fluoro-3-oxoisoindolin-5-yl)methyl(3-fluoro-5-(trifluoromethoxy)phenyl)carbamate], the DC50 on GSPT1 (setting [3]) fell in the range of 30 to 300 nM. In test [1] (setting [4]), the IC50 is over 1900 nM.

Regarding `COc1cc(COC(=O)Nc2ccc(C(C)(C)C)nc2)cc2c1CN(C1CCC(=O)NC1=O)C2=O` (stereo not shown) [Compound 44, (2-(2,6-dioxopiperidin-3-yl)-7-methoxy-3-oxoisoindolin-5-yl)methyl (6-(tert-butyl)pyridin-3-yl)carbamate], the DC50 on GSPT1 (compounds with code A, read-out: DC50 value code) was under 30 nM; on GSPT1 (setting [3]), under 30 nM. In addition, the IC50 in test [1] (setting [2]) is under 600 nM; in test [1] (setting [4]) it was at most 600 nM.

`O=C1CCC(N2Cc3c(F)cc(COC(=O)Nc4cc(Cl)cc(Cl)c4)cc3C2=O)C(=O)N1` (stereo not shown) [Compound 28, (2-(2,6-dioxopiperidin-3-yl)-7-fluoro-3-oxoisoindolin-5-yl)methyl(3,5-dichlorophenyl)carbamate]: on GSPT1 (setting [3]), the DC50 was 30 to 300 nM. Moreover, the IC50 in test [1] (setting [4]) is over 1900 nM.

In the case of `CC(C)(C)c1ccc(NC(=O)OCc2cc(F)c3c(c2)C(=O)N(C2CCC(=O)NC2=O)C3)cn1` (stereo not shown) [Compound 9, (2-(2,6-dioxopiperidin-3-yl)-7-fluoro-3-oxoisoindolin-5-yl)methyl(6-(tert-butyl)pyridin-3-yl)carbamate], the IC50 in test [1] (setting [2]) was under 600 nM.

Take `COc1cc(COC(=O)Nc2ccc(N3CCCC3C)nc2)cc2c1CN(C1CCC(=O)NC1=O)C2=O` (stereo in doubt) [Compound 62, (2-(2,6-dioxopiperidin-3-yl)-7-methoxy-3-oxoisoindolin-5-yl)methyl (6-((R)-2-methylpyrrolidin-1-yl)pyridin-3-yl)carbamate]: the IC50 is under 600 nM in test [1] (setting [2]) and at most 600 nM in test [1] (setting [4]).

For `Cc1cc(F)cc(NC(=O)OCc2cc(F)c3c(c2)C(=O)N(C2CCC(=O)NC2=O)C3)c1` (stereo not shown) [Compound 63, (2-(2,6-dioxopiperidin-3-yl)-7-fluoro-3-oxoisoindolin-5-yl)methyl (3-fluoro-5-methylphenyl)carbamate], the DC50 on GSPT1 (setting [3]) was 30 to 300 nM.

Take `COc1cc(COC(=O)Nc2ccc(F)c(OC(F)(F)F)c2)cc2c1CN(C1CCC(=O)NC1=O)C2=O` (stereo not shown) [Compound 39, (2-(2,6-dioxopiperidin-3-yl)-7-methoxy-3-oxoisoindolin-5-yl)methyl(4-fluoro-3-(trifluoromethoxy)phenyl) carbamate]: the concentration for half-maximal inhibition (IC50) in test [1] (setting [2]) is under 600 nM.

As for `COc1cc(COC(=O)Nc2cc(Cl)c(C)cc2F)cc2c1CN(C1CCC(=O)NC1=O)C2=O` (stereo not shown) [Compound 68, (2-(2,6-dioxopiperidin-3-yl)-7-methoxy-3-oxoisoindolin-5-yl)methyl (5-chloro-2-fluoro-4-methylphenyl)carbamate], the DC50 at GSPT1 (setting [3]) is over 300 nM.

Take `Cc1ccc(NC(=O)OCc2ccc3c(c2C)C(=O)N(C2CCC(=O)NC2=O)C3)cc1Cl` (stereo not shown) [Compound 73, (2-(2,6-dioxopiperidin-3-yl)-4-methyl-3-oxoisoindolin-5-yl)methyl(3-chloro-4-methylphenyl)carbamate]: in test [1] (setting [4]), the IC50 is at most 600 nM.

As to `O=C1CCC(N2Cc3c(F)cc(COC(=O)Nc4cc(OC(F)(F)F)ccc4F)cc3C2=O)C(=O)N1` (stereo not shown) [Compound 65, (2-(2,6-dioxopiperidin-3-yl)-7-fluoro-3-oxoisoindolin-5-yl)methyl (2-fluoro-5-(trifluoromethoxy)phenyl) carbamate], the DC50 at GSPT1 (setting [3]) is 30 to 300 nM.

On to `CC1(C)COc2cc(NC(=O)OCc3cc(F)c4c(c3)C(=O)N(C3CCC(=O)NC3=O)C4)ccc21` (stereo not shown) [Compound 17, (2-(2,6-dioxopiperidin-3-yl)-7-fluoro-3-oxoisoindolin-5-yl)methyl(3,3-dimethyl-2,3-dihydrobenzofuran-6-yl) carbamate], for which the IC50 in test [1] (setting [2]) was under 1200 nM.

Regarding `Cc1cc(Cl)cc(NC(=O)OCc2cc(F)c3c(c2)C(=O)N(C2CCC(=O)NC2=O)C3)c1` (stereo not shown) [Compound 27, (2-(2,6-dioxopiperidin-3-yl)-7-fluoro-3-oxoisoindolin-5-yl)methyl(3-chloro-5-methylphenyl)carbamate], the IC50 in test [1] (setting [2]) was under 600 nM.

For `Cc1cc(F)c(NC(=O)OCc2cc(F)c3c(c2)C(=O)N(C2CCC(=O)NC2=O)C3)cc1Cl` (stereo not shown) [Compound 64, (2-(2,6-dioxopiperidin-3-yl)-7-fluoro-3-oxoisoindolin-5-yl)methyl(5-chloro-2-fluoro-4-methylphenyl)carbamate], the DC50 at GSPT1 (setting [3]) lay within 30 to 300 nM.

On to `Cc1cc(NC(=O)OCc2cc(F)c3c(c2)C(=O)N(C2CCC(=O)NC2=O)C3)cnc1-c1ccccc1` (stereo not shown) [Compound 20, (2-(2,6-dioxopiperidin-3-yl)-7-fluoro-3-oxoisoindolin-5-yl)methyl(5-methyl-6-phenylpyridin-3-yl)carbamate], for which, in test [1] (setting [2]), the IC50 was under 600 nM.

For the compound `C[C@@H]1CCCN1c1ccc(NC(=O)OCc2cc(F)c3c(c2)C(=O)N(C2CCC(=O)NC2=O)C3)cn1` (stereo partly drawn) [Compound 23, (2-(2,6-dioxopiperidin-3-yl)-7-fluoro-3-oxoisoindolin-5-yl)methyl (6-((R)-2-methylpyrrolidin-1-yl)pyridin-3-yl)carbamate], the IC50 in test [1] (setting [2]) was under 600 nM.

Consider `COc1cc(COC(=O)Nc2ccc(C3CCC3)cc2)cc2c1CN(C1CCC(=O)NC1=O)C2=O` (stereo not shown) [Compound 57, (2-(2,6-dioxopiperidin-3-yl)-7-methoxy-3-oxoisoindolin-5-yl)methyl(4-cyclobutylphenyl) carbamate], for which the 50% inhibitory concentration (IC50) in test [1] (setting [2]) is under 1200 nM.

Broadly, the IC50 is the concentration that gives 50% inhibition. As usually defined, the DC50 is the concentration giving 50% degradation.
